Blank lines part the entries; values can stand above or below the compound they belong to.
Tests used:
Assay type in all cases: physicochemical
[1] = Accelerated stability tests of crystalline Compound A Form 1 (Table 5); conditions: 7 days; for Purity after storage: HPLC
Description: (§1) XRPD analysis was carried out on a PANalytical X'pert Pro with PIXcel detector (128 channels), scanning the samples between 3 and 35° […]. The material was gently ground (where required) to release any agglomerates and loaded onto a multi-well plate with Kapton or Mylar polymer film to support the sample. The multi-well plate was then placed into the diffractometer and analyzed using Cu K radiation (α1 λ=1.54060 Å; α2 λ=1.54443 Å; β λ=1.39225 Å; α1:α2 ratio=0.5) running in transmission mode (step size 0.0130° 2θ, step time 18.87 s) using 40 kV/40 mA generator settings. Data were visualized and images generated using the HighScore Plus 4.7 desktop application (PANalytical, 2017).
Crystalline Compound A (Form 1) was not changed after storage at room temperature for 7 days, storage at 40 °C/75% RH for 7 days, or storage at 80 °C for 7 days. Purity was determined by HPLC analysis.

[2] = Long-term stability tests of crystalline Compound A Form 1 (Table 6); conditions: for Purity after storage: HPLC
Description: as §1
Crystalline Compound A (Form 1) was not changed after storage at 25 °C/60% RH for 36 months or storage at 40 °C/75% RH for 6 months. Purity was determined by HPLC analysis.

[3] = Karl Fischer (KF) coulometric titration; conditions: in duplicate
Description: Water content of crystalline Compound A was determined using KF Coulometric Titration by either direct addition or liquid extraction.
10-20 mg of crystalline Compound A was weighed into a vial. The solid was then manually introduced into the titration cell of a Mettler Toledo C30 Compact Titrator. The vial was back-weighed after the addition of the solid and the weight of the added solid entered on the instrument. Titration was initiated once the sample had fully dissolved in the cell. The water content was calculated automatically by the instrument as a percentage and the data printed. The analysis was carried out in duplicate.
10-20 mg of crystalline Compound A was weighed into a vial, 10-15 mL of the Coulomat was extracted from the cell of a Mettler Toledo C30 Compact Titrator and added to the vial containing the sample. The solid was dissolved by shaking manually or using ultrasonic bath. When complete dissolution was achieved, the solution was injected back into the cell titrator and the weight of the sample added was entered on the instrument. The water content was calculated automatically by the instrument as a percentage and the data printed. The analysis was carried out in duplicate.

[4] = Variable humidity X-ray powder diffraction (VH-XRPD); conditions: desorption phase, 90% RH to 20% RH; starting from Form 2
Description: A known mass of 5-(3,6-dibromo-9H-carbazol-9-yl)-N,N,N-trimethylpentan-1-aminium chloride Form 2 (Compound A Form 2) was analyzed by variable humidity X-ray powder diffraction (VH-XRPD) on a Philips X'Pert Pro Multipurpose diffractometer quipped with a humidity chamber. The samples were scanned between 4 and 35.99° 2θ using Cu K radiation (α1 λ=1.54060 Å; α2=1.54443 Å; β=1.39225 Å; α1:α2 ratio=0.5) running in Bragg-Brentano geometry (step size 0.008° 2θ) using 40 kV/40 mA generator settings. Measurements were performed between 7-90% RH and XRPD scans were collected at each humidity step. The VH-XRPD analysis was conducted an absorption phase between ambient and 90% RH, a desorption phase between 90% RH and 7% RH, and a second absorption phase between 20% and 40% RH.

[5] = Conversion of Compound A Form 4 on standing in humid conditions; conditions: standing at 25 °C and 40 °C and at >30% RH
[6] = 25 °C/60% RH (closed container), 24 months

XRPD after storage ([1]; 40 °C/75% RH (open vial)): Unchanged
Purity after storage ([1]; 40 °C/75% RH (open vial)): 99.93%
Change after storage ([1]; 40 °C/75% RH): not changed
XRPD after storage ([1]; 80 °C (closed vial)): Unchanged
Purity after storage ([1]; 80 °C (closed vial)): 99.93%
Change after storage ([1]; 80 °C): not changed
XRPD after storage ([1]; Room Temperature (open vial)): Unchanged
Purity after storage ([1]; Room Temperature (open vial)): 99.93%
Change after storage ([1]; room temperature): not changed
XRPD after storage ([2]; 25 °C/60% RH (closed container), 3 months): Unchanged
Purity after storage ([2]; 25 °C/60% RH (closed container), 3 months, 131040 min): 99.7%
XRPD after storage ([2]; 25 °C/60% RH (closed container), 6 months): Unchanged
Purity after storage ([2]; 25 °C/60% RH (closed container), 6 months, 263520 min): 99.7%
XRPD after storage ([2]; 25 °C/60% RH (closed container), 12 months): Unchanged
Purity after storage ([2]; 25 °C/60% RH (closed container), 12 months, 525600 min): 99.7%
XRPD after storage [2, 6]: Unchanged
Purity after storage [2, 6]: 99.7%
XRPD after storage ([2]; 25 °C/60% RH (closed container), 36 months): Unchanged
Purity after storage ([2]; 25 °C/60% RH (closed container), 36 months, 1.5768e+06 min): 99.7%
Change after storage ([2]; 25 °C/60% RH, 36 months): not changed
XRPD after storage ([2]; 40 °C/75% RH (closed container), 1 month): Unchanged
Purity after storage ([2]; 40 °C/75% RH (closed container), 1 month, 43200 min): 99.7%
XRPD after storage ([2]; 40 °C/75% RH (closed container), 3 months): Unchanged
Purity after storage ([2]; 40 °C/75% RH (closed container), 3 months, 131040 min): 99.7%
XRPD after storage ([2]; 40 °C/75% RH (closed container), 6 months): Unchanged
Purity after storage ([2]; 40 °C/75% RH (closed container), 6 months, 263520 min): 99.8%
Change after storage ([2]; 40 °C/75% RH, 6 months): not changed
Water content ([3]; listed as Form 1): 4.38% w/w %
Compound: C[N+](C)(C)CCCCCn1c2ccc(Br)cc2c2cc(Br)ccc21.[Cl-] [Compound A Form 1, 5-(3,6-dibromo-9H-carbazol-9-yl)-N,N,N-trimethylpentan-1-aminium chloride]

Compound: C[N+](C)(C)CCCCCn1c2ccc(Br)cc2c2cc(Br)ccc21.[Cl-] [Compound A Form 2, 5-(3,6-dibromo-9H-carbazol-9-yl)-N,N,N-trimethylpentan-1-aminium chloride]
Crystalline form observed [4]: Crystalline Form 1 of Compound A was observed during the desorption phase between 90% RH and 20% RH

Water content ([3]; listed as Form 3): 5.3% w/w %
Compound: C[N+](C)(C)CCCCCn1c2ccc(Br)cc2c2cc(Br)ccc21.[Cl-] [Compound A Form 3, 5-(3,6-dibromo-9H-carbazol-9-yl)-N,N,N-trimethylpentan-1-aminium chloride]

Water content ([3]; listed as Form 4): 1% w/w %
Compound: C[N+](C)(C)CCCCCn1c2ccc(Br)cc2c2cc(Br)ccc21.[Cl-] [Compound A Form 4, 5-(3,6-dibromo-9H-carbazol-9-yl)-N,N,N-trimethylpentan-1-aminium chloride]
Conversion of crystalline form [5]: converted to crystalline Form 1 of Compound A
